Assay results reported in PMC4371799 (Clinical Epigenetics, 2015).
“And” between values parts separate entries of the source, which are not always exact repeats. Equal entries are not always repeated. Where two headings read alike, the source gives them in different places.

Legend:
[1] = Azacitidine plasma pharmacokinetics, non-compartmental analysis; format: in vivo, patients; conditions: for AUC / Cmax / half-life / AUC(0-inf): human, plasma, intravenous
Source text: Compartmental and non-compartmental modeling were used to derive pharmacokinetic parameters, including Cmax (maximum concentration), AUC (area under the curve), t1/2 (half-life of elimination), Vd (volume of distribution), and CL (clearance).

[2] = test system: platinum-resistant ovarian cancer cells; conditions: cited from earlier work
[3] = azacitidine/oxaliplatin 20/15 mg/m^2, C1D1, n = 3, mean (SD)
[4] = azacitidine/oxaliplatin 20/15 mg/m^2, C1D5, n = 3, mean (SD)
[5] = azacitidine/oxaliplatin 20/22.5 mg/m^2, C1D1, n = 3, mean (SD)
[6] = azacitidine/oxaliplatin 20/22.5 mg/m^2, C1D5, n = 3, mean (SD)
[7] = azacitidine/oxaliplatin 20/30 mg/m^2, C1D1, n = 3, mean (SD)
[8] = azacitidine/oxaliplatin 20/30 mg/m^2, C1D5, n = 3, mean (SD)
[9] = azacitidine/oxaliplatin 25/30 mg/m^2, C1D1, n = 3, mean (SD)
[10] = azacitidine/oxaliplatin 25/30 mg/m^2, C1D5, n = 3, mean (SD)
[11] = azacitidine/oxaliplatin 40/30 mg/m^2, C1D1, n = 3, mean (SD)
[12] = azacitidine/oxaliplatin 40/30 mg/m^2, C1D5, n = 3, mean (SD)
[13] = azacitidine/oxaliplatin 50/30 mg/m^2, C1D1, n = 22, mean (SD)
[14] = azacitidine/oxaliplatin 50/30 mg/m^2, C1D5, n = 22, mean (SD)

For Nc1ncn([C@@H]2O[C@H](CO)[C@@H](O)[C@H]2O)c(=O)n1 [azacitidine], the “dose-dependent interaction on mean systemic exposure (plasma AUCall)” value ([1]; azacitidine D1 and 5, with oxaliplatin) was “increasing the dose of oxaliplatin reduced the mean azacitidine exposure”, the CL [1, 3] was 167.1 (170.5) l/h/m^2 and the V d [1, 3] was 92.3 (58.9) l/m^2. For the same compound, the CL [1, 4] was 136.7 (97.0) l/h/m^2, the V d [1, 4] was 61.1 (35.4) l/m^2 and the CL [1, 5] was 62.7 (53.9) l/h/m^2. For the same compound, the V d [1, 5] was 78.6 (54.4) l/m^2, the CL [1, 6] was 62.9 (25.4) l/h/m^2 and the V d [1, 6] was 85.4 (69.0) l/m^2. For the same compound, the CL [1, 7] was 239.3 (139.2) l/h/m^2, the V d [1, 7] was 226.5 (253.4) l/m^2 and the CL [1, 8] was 146.1 (40.0) l/h/m^2. The V d [1, 8] was 71.6 (19.0) l/m^2, the CL [1, 9] was 168.6 (126.7) l/h/m^2 and the V d [1, 9] was 70.3 (35.7) l/m^2. For the same compound, the CL [1, 10] was 150.0 (74.6) l/h/m^2, the V d [1, 10] was 132.2 (62.5) l/m^2 and the CL [1, 11] was 616.6 (525.5) l/h/m^2. For the same compound, the V d [1, 11] was 105.8 (37.0) l/m^2, the CL [1, 12] was 253.0 (165.5) l/h/m^2 and the V d [1, 12] was 95.6 (57.3) l/m^2. For the same compound, the AUCinf [1, 13] was 412.1 (195.7) h-ng/ml, the C max [1, 13] was 581.1 (284.8) ng/ml and the CL [1, 13] was 178 l/h/m^2 and 177.7 (155.9) l/h/m^2. For the same compound, the V d [1, 13] was 121 l/m^2 and 120.6 (112.0) l/m^2, the AUCinf [1, 14] was 431.5 (261.7) h-ng/ml and the C max [1, 14] was 637.7 (428.6) ng/ml. For the same compound, the CL [1, 14] was 156 l/h/m^2 and 156.2 (80.7) l/h/m^2, the V d [1, 14] was 94 l/m^2 and 94.0 (50.7) l/m^2 and the AUC [1, 3] was 216 ng·h/mL. For the same compound, the Cmax [1, 3] was 327 ng/mL, the half-life [1, 3] was 32.4 min and the AUC(0-inf) ([1]; azacitidine/oxaliplatin 20/15 mg/m^2, C1D1, n = 3, mean (SD), read-out: AUCinf) was 221 ng·h/mL. For the same compound, the AUC [1, 4] was 193 ng·h/mL, the Cmax [1, 4] was 334 ng/mL and the half-life [1, 4] was 21 min. For the same compound, the AUC(0-inf) ([1]; azacitidine/oxaliplatin 20/15 mg/m^2, C1D5, n = 3, mean (SD), read-out: AUCinf) was 196 ng·h/mL, the AUC [1, 5] was 428 ng·h/mL and the Cmax [1, 5] was 427 ng/mL. The half-life [1, 5] was 653 min, the AUC(0-inf) ([1]; azacitidine/oxaliplatin 20/22.5 mg/m^2, C1D1, n = 3, mean (SD), read-out: AUCinf) was 2330 ng·h/mL and the AUC(0-inf) ([1]; azacitidine/oxaliplatin 20/22.5 mg/m^2, C1D1, n = 3, median (footnote a), read-out: AUCinf, median) was 259 ng·h/mL. The AUC [1, 6] was 317 ng·h/mL, the Cmax [1, 6] was 452 ng/mL and the half-life [1, 6] was 76.2 min. It also gave an AUC(0-inf) ([1]; azacitidine/oxaliplatin 20/22.5 mg/m^2, C1D5, n = 3, mean (SD), read-out: AUCinf) of 357 ng·h/mL, an AUC [1, 7] of 112 ng·h/mL and a Cmax [1, 7] of 206 ng/mL. The half-life [1, 7] was 32.4 min, the AUC(0-inf) ([1]; azacitidine/oxaliplatin 20/30 mg/m^2, C1D1, n = 3, mean (SD), read-out: AUCinf) was 125 ng·h/mL and the AUC [1, 8] was 144 ng·h/mL. For the same compound, the Cmax [1, 8] was 214 ng/mL, the half-life [1, 8] was 20.4 min and the AUC(0-inf) ([1]; azacitidine/oxaliplatin 20/30 mg/m^2, C1D5, n = 3, mean (SD), read-out: AUCinf) was 146 ng·h/mL. The AUC [1, 9] was 210 ng·h/mL, the Cmax [1, 9] was 252 ng/mL and the half-life [1, 9] was 19.8 min. The AUC(0-inf) ([1]; azacitidine/oxaliplatin 25/30 mg/m^2, C1D1, n = 3, mean (SD), read-out: AUCinf) was 216 ng·h/mL, the AUC [1, 10] was 208 ng·h/mL and the Cmax [1, 10] was 273 ng/mL. It also gave a half-life [1, 10] of 43.2 min, an AUC(0-inf) ([1]; azacitidine/oxaliplatin 25/30 mg/m^2, C1D5, n = 3, mean (SD), read-out: AUCinf) of 214 ng·h/mL and an AUC [1, 11] of 97.5 ng·h/mL. For the same compound, the Cmax [1, 11] was 190 ng/mL, the half-life [1, 11] was 9.6 min and the AUC(0-inf) ([1]; azacitidine/oxaliplatin 40/30 mg/m^2, C1D1, n = 3, mean (SD), read-out: AUCinf) was 100 ng·h/mL. The AUC [1, 12] was 206 ng·h/mL, the Cmax [1, 12] was 289 ng/mL and the half-life [1, 12] was 16.2 min. The AUC(0-inf) ([1]; azacitidine/oxaliplatin 40/30 mg/m^2, C1D5, n = 3, mean (SD), read-out: AUCinf) was 212 ng·h/mL, the AUC [1, 13] was 404 ng·h/mL and the Cmax [1, 13] was 581 ng/mL. It also gave a half-life [1, 13] of 40.2 min, an AUC(0-inf) ([1]; azacitidine/oxaliplatin 50/30 mg/m^2, C1D1, n = 22, mean (SD), read-out: AUCinf) of 412 ng·h/mL and an AUC [1, 14] of 426 ng·h/mL. The Cmax [1, 14] was 638 ng/mL, the half-life [1, 14] was 25.2 min and the AUC(0-inf) ([1]; azacitidine/oxaliplatin 50/30 mg/m^2, C1D5, n = 22, mean (SD), read-out: AUCinf) was 432 ng·h/mL. The “effect on sensitivity to carboplatin” value [2] was “enhance the sensitivity of platinum-resistant ovarian cancer cells to carboplatin”.
